Test results taken from patent US20170165230A1, “USE OF GSK-3 INHIBITORS OR ACTIVATORS WHICH MODULATE PD-1 OR T-BET EXPRESSION TO MODULATE T CELL IMMUNITY” (priority 2014, published 2017).
Entries after “also recorded” stand apart in the source; their conditions may differ.

What was measured:
[1] = test system: PD-1 expression on OT-1 T-cells; test: FACS of PD-1 surface expression on OT-1 T-cells stimulated in vitro by OVA peptide presented by EL-4 cells; type: cell-based, mouse; settings: OT-1 T-cells stimulated in vitro by OVA peptide presented by EL-4 cells (FIG. 1, 2, 3, 11)
Procedure: (§1) Non-stained cells were used a control.
(§2) Cells were then stained for FACs with APC conjugated anti-PD-1 (CD279) (a, b) or subjected to qPCR (c, d) as described in the Materials and Methods. Reverse transcription was performed using the RNA polymerase chain reaction (PCR). PCRs were amplified for 40 cycles in a sequence detection system. mRNA expression was normalized against GAPDH (Glyceraldehyde 3-phosphate dehydrogenase) expression using the standard curve method.
T-cells were incubated in the presence or absence of anti-PD-1 and then subjected to FACs or qPCR as described in the Materials and Methods.

[2] = test system: Tbet (Tbx21) transcription; test: qPCR of Tbet transcription in OT-1 T-cells stimulated in vitro by OVA peptide/EL4; type: cell-based, mouse; settings: OT-1 T-cells stimulated by OVA peptide in vitro (FIG. 1d)
Procedure: (§3) Single-strand cDNA was synthesized with an RT-PCR kit (Qiagen, Hilden, Germany) according to the manufacturer's instructions. Reverse transcription was performed using the RNA polymerase chain reaction (PCR) core kit (Applied Biosystems). Relative quantitative real-time PCR used SYBR green technology (Roche) on cDNA generated from the reverse transcription of purified RNA. After preamplification (95° C. for 2 min), the PCRs were amplified for 40 cycles (95° C. for 15 s and 60° C. for 60 s) in a sequence detection system (PE Prism 7000; Perkin-Elmer Applied Biosystems, USA). mRNA expression was normalized against GAPDH expression using the standard curve method.
as §2

[3] = test system: CTLA-4 (CD152) expression; test: FACS of CTLA-4 (CD152) expression on T-cells from EL4-OVA tumor-bearing mice treated in vivo; set-up: species or system mouse; settings: EL4-OVA model (FIG. 12e)
[4] = test system: EL4-OVA target cells; test: Cytotoxicity assay: OT-1 CD8+ CTL killing of EL4-OVA target cells; settings: over a range of target:effector ratios (FIG. 1e,f)
Procedure: Cytotoxicity was assayed using a Cytotox 96 nonradioactive kit (Promega) following the instructions provided and using established methods. In brief, purified T cells were plated in 96-well plates at the effector/target ratios shown using 10^4 EL4 (ova peptide-pulsed) target cells per well in a final volume of 200 μl per well using RPMI lacking phenol red. Target cells per well were in a final volume of 200 μl per well using RPMI lacking phenol red. Lactate dehydrogenase release was assayed after 4 h incubation at 37° C. by removal of 50 μl supernatant from each well and incubation with substrate provided for 30 min and the absorbance read at 490 nm using the Thermomax plate reader (Molecular Devices). Percentage cytotoxicity=((experimental effectorspontaneous−target spontaneous)/(targetmaximum−target spontaneous))×100.

[5] = test system: panel of 24 other protein kinases; settings: selectivity; cited from earlier work
[6] = test system: PD-1 transcription; test: qPCR of PD-1 transcription in cells from EL4-OVA tumor-bearing OT-1 Tg mice; type: in vivo, mouse; settings: cells at day 12, mice 4-6 weeks (FIG. 9b)
Procedure: as §3, with “method. […]” for “method.”

[7] = test system: EL4 tumor cells; test: Intradermal EL4 / EL4-OVA tumor model in OT-1 Tg mice, tumor growth; type: in vivo, mouse; settings: OVA peptide 2, 5 and 10 ug, 10 days, young mice 4-6 weeks (FIG. 9a)
[8] = test system: FasL expression; test: FACS of FasL expression on T-cells from EL4-OVA tumor-bearing mice treated in vivo; set-up: species or system mouse; settings: negative control (FIG. 9d)
Source text: Tumors were visible after 1 wk and grew progressively in an encapsulated fashion. Mice were young at 4-6 weeks.

[9] = test system: Tbet transcription; test: qPCR of Tbet transcription in cells from EL4-OVA tumor-bearing OT-1 Tg mice; type: in vivo, mouse; settings: cells at day 12, mice 4-6 weeks (FIG. 9c)
Procedure: as §3, with “method. […]” for “method.”

[10] = test system: PD-1 expression on T-cells; test: FACS of PD-1 expression on T-cells from EL4-OVA tumor-bearing mice treated in vivo; set-up: species or system mouse; settings: EL4-OVA model
[11] = test system: CD3 expression; test: FACS of CD3 expression on OVA-activated OT-1 T-cells; type: cell-based, mouse
Source text: (§4) The presence of cells was confirmed by using forward scatter height or side scatter height n the form of a dot and contor plots. […] Non-stained cells were used a control.

[12] = test system: CD69 expression; test: FACS of CD69 expression on T-cells from EL4-OVA tumor-bearing mice treated in vivo; set-up: species or system mouse; settings: EL4-OVA model (FIG. 12d)
[13] = test system: Interferon-γ1 (IFN-γ1) expression; test: FACS of IFN-γ1 expression on T-cells from EL4-OVA tumor-bearing mice treated in vivo; set-up: species or system mouse; settings: EL4-OVA model (FIG. 12b,c)
[14] = test system: FasL expression; test: FACS of FasL expression on OVA-activated OT-1 T-cells; type: cell-based, mouse
Source text: as §1

[15] = test system: PD-1 expression on T-cells; test: FACS of PD-1 expression on T-cells activated with anti-CD3 (2C11) for 48 hours; type: cell-based, mouse; settings: anti-CD3 (2C11) 48 hours; anti-CD3 increased MFI by 5 fold (FIG. 4)
Procedure: For anti-CD3 activation of T-cells, cells were stimulated with 5 μg/ml of anti-CD3 (2C11) in RPMI medium supplemented with 10% FCS, 2 mM glutamine, 50 uM 2-ME, 100 U/ml penicillin/streptomycin for 2-4 days using established methods.
as §4
(§5) The chemical structures of each inhibitor are shown on bottom and right sides of figure.
as §5

[16] = test system: PD-1 expression on T-cells; test: FACS of PD-1 expression induced by mixed lymphocyte reaction (C57Bl/6 + ICR/CD1 spleen T-cells, 60 hours); type: cell-based, mouse; settings: C57Bl/6 + ICR/CD1 co-culture, 60 hours (FIG. 5, 6)
Procedure: Cell flow cytometry with an acquisition of 10 000 events and data analysis using FlowJo).
C57BL/6J (B6) or outbred mouse CRI/CD1 T-cells were cultivated either alone or together at equal numbers (1×10^6/ml) for 60 hours in the presence or absence of the inhibitor followed by the harvesting of cells and FACs analysis for PD-1 using anti-PD-1-PE.

[17] = test system: PD-1 expression on T-cells; test: FACS of PD-1 expression on Con A activated T-cells; type: cell-based, mouse; settings: Con A activated T-cells (FIG. 5f)
Source text: Another mode of T-cell activation involves the stimulation by the lectin Concanavalin A (Con A) (e, f). ConA binds α-D-mannosyl and α-D-glucosyl residues (two hexoses differing only by the alcohol on carbon 2) in terminal position of ramified structures from B-Glycans (reach in α-mannose, or hybrid and bi-antennary glycanes complexes). Con A is known to induce cell agglutination/clustering and to stimulate mouse T-cell subsets giving rise to four functionally distinct T cell populations, including precursors to suppressor T-cell (Dwyer and Johnson 1981 Clin Exp Immunol 46 (2): 237-49). (e) contains the bright field images of Con A activated cells with cell clustering observed in the presence and absence of GSK-3 inhibitor TDZD-8.

[18] = Oral administration in drinking water, cell numbers and viability of spleen cells
Procedure: A stock solution 1 mg/ml was made in 1% DMSO. In one set, the 10 ug stock solution was diluted in 10 ml of water. […] By 48 hours, all water was consumed. Mice were then sacrificed, spleen extracted on 60 hours, cells were spun down at 1,800 for 3 min and ACK for removal of red blood cells (RBCs) treated for 2 min. Cells were then centrifuged at 1,800 rpm for 3 min and the absence of red blood cells was confirmed by the loss of red color in the cell pellet. […] An additional stimulant of 2 ug/ml ConA was also added at 48 hours of culture.
Ex vivo extracted cells were then cultured in 48 well tissue culture plates for 48 hours in the presence of anti-CD3 on plates (1 ug/ml).

[19] = test system: PD-1 expression on T-cells; test: Oral administration in drinking water, PD-1 expression on ex vivo anti-CD3 activated spleen cells; set-up: species or system mouse; settings: B6 mice
Procedure: . […] By 48 hours, all water was consumed. […] Non-stained cells were used a control.

With Cn1cc(C2=C(c3ccc(Cl)cc3Cl)C(=O)NC2=O)c2ccccc21 [SB216763, 3-(2,4-dichlorophenyl)-4-(1-methyl-1H-indol-3-yl)-1H-pyrrole-2,5-dione] as the compound, how does the “PD-1 surface expression (FACS profile)” value [1] read?
The value was “reduced PD-1 expression; also recorded: decreased the number of cells expressing PD-1”.

And the “Tbet transcription (qPCR)” value [2]?
Its value is “increased Tbet transcription”.

And the “CTLA-4 expression after in vivo administration (FACS)” value [3]?
Its value is “minor increase”.

And the “OT-1 CTL killing of EL4-OVA targets (CTL function)” value [4]?
The value was “increase CTL function”.

And the “inhibition of a panel of 24 other protein kinases” value [5]?
Its value is “Neither compound significantly inhibited any member”.

What about the “PD-1 transcription in vivo (qPCR)” value [6] of the same compound?
The value was “inhibition of PD-1 transcription at all doses of OVA peptide”.

What about the tumor growth [7] of the same compound?
Its tumor growth is “prevented tumor growth at all concentrations of OVA peptide”.

And the “FasL expression after in vivo administration (flow cytometry)” value [8]?
The value was “absence of an effect on FasL expression”.

What about the “Tbet transcription in vivo (qPCR)” value [9] of the same compound?
Its value is “increased Tbet transcription”.

What about the “PD-1 expression on T-cells after in vivo administration (flow cytometry)” value ([10]; mice 4-6 weeks (FIG. 9d)) of the same compound?
Its value is “PD-1 expression is reduced”.

And the “PD-1 expression on T-cells after in vivo administration (FACS)” value ([10]; tumor elimination (FIG. 12a))?
Its value is “down-regulation of PD-1”.

What about the “CD3 expression (FACS profile)” value [11] of the same compound?
The value was “unaltered CD3 expression”.

And the “CD69 expression after in vivo administration (FACS)” value [12]?
The value was “minor increase in CD69 expression”.

What about the “IFN-γ1 expression after in vivo administration (FACS)” value [13] of the same compound?
Its value is “increase expression of IFN-γ1 on a greater number of cells”.

What about the “FasL expression (FACS profile)” value [14] of the same compound?
Its value is “unaltered FasL expression”.

Which “inhibition of anti-CD3 induced increase in PD-1 expression (MFI)” value (from here on “inhibition of anti-CD3 induced increase”) [15] does the source give for Cc1c[nH]c(-c2cnc(NCCNc3ccc(C#N)cn3)nc2-c2ccc(Cl)cc2Cl)n1.Cl [CHIR-99021, 6-(2-(4-(2,4-dichlorophenyl)-5-(4-methyl-1H-imidazol-2-yl)pyrimidin-2-ylamino)ethylamino)nicotinonitrile hydrochloride] here?
Its value is greater than 55%.

What about the “PD-1 expression induced in the MLR (FACS)” value [16] of the same compound?
The value was “inhibition of PD-1 expression”.

For COc1ccc(CNC(=O)Nc2ncc([N+](=O)[O-])s2)cc1 [AR-A014418, N-[(4-Methoxyphenyl)methyl]-N′-(5-nitro-2-thiazolyl)urea], which “inhibition of anti-CD3 induced increase” value [15] is on record?
Its value is greater than 45%.

And the “PD-1 expression induced in the MLR (FACS)” value [16]?
Its value is “inhibition of PD-1 expression”.

Which “inhibition of anti-CD3 induced increase” value [15] does the source give for Cn1sc(=O)n(Cc2ccccc2)c1=O [TDZD-8, 1,2,4-Thiadiazolidine-3,5-dione, 2-methyl-4-(phenylmethyl)] here?
The value was greater than 50%.

And the “fewer PD-1 positive cells” value [17]?
Its value is greater than 45%.

What about the “cell death / viability of cells in ex vivo culture after oral administration” value ([18]; 48 hours ex vivo culture (FIG. 13b,c)) of the same compound?
Its value is “no indication of cell death; also recorded: no obvious long-term effect on viability”.

What about the “spleen cell numbers, drug treated versus untreated mice” value ([18]; oral, 2 mg/kg, spleen extracted at 60 hours) of the same compound?
Its value is “No difference on cell numbers”.

And the “percentage of T-cells expressing PD-1 after oral administration” value ([19]; drug in drinking water (FIG. 13e))?
The value was “reduce the percentage of T-cells expressing PD-1”.

And the “PD-1 expression on ex vivo cells after oral administration (FACS)” value ([19]; drug in drinking water, ex vivo anti-CD3 48 hours (FIG. 13d))?
Its value is “lower expression of PD-1”.
